Assays:
Test in all cases: relative IC50 (inflection point of fitted viability curve, relative to fitted max inhibition); higher = less sensitive
Details in all cases: 72 h
[1] = tested on: IMC-1 (IL-2 20 ng/mL)
Description: (§1)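 Drug sensitivity and resistance testing: 5 concentrations over a 10,000-fold range, 72 h at 37 °C, viability by CellTiter-Glo normalised to DMSO and benzethonium chloride controls. IC50 is the inflection point of a logistic fit (min fixed at 0, max fitted), so it is relative to the fitted maximal inhibition. Kept only where fitted max inhibition is at least 50%.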

[2] = tested on: NK-YS (IL-2 2.5 ng/mL)
Description: as §1

[3] = tested on: DERL-7 (IL-2 2.5 ng/mL)
Description: as §1

[4] = tested on: SNK-6 (IL-2 2.5 ng/mL)
Description: as §1

[5] = tested on: KHYG-1 (IL-2 2.5 ng/mL)
Description: as §1

[6] = tested on: KAI3 (IL-2 2.5 ng/mL)
Description: as §1

[7] = tested on: NK-92 (IL-2 2.5 ng/mL)
Description: as §1

[8] = tested on: YT (IL-2 2.5 ng/mL)
Description: as §1

[9] = tested on: NKL (IL-2 2.5 ng/mL)
Description: as §1

Row | SMILES | relative IC50 [1] | relative IC50 [2] | relative IC50 [3] | relative IC50 [4] | relative IC50 [5] | relative IC50 [6] | relative IC50 [7] | relative IC50 [8] | relative IC50 [9]
1 | CCn1cc(-c2ccnc3[nH]c(-c4cccc(CN(C)C)c4)cc23)c(-c2ccc(NC(=O)N(C)C)cc2)n1 | 158 nM | 12.3 nM | 17.6 nM | 4.21 nM | 39.7 nM | – | – | – | –
2 | Nc1nccc(-c2c(-c3ccc(F)cc3)ncn2C2CCCCC2)n1 | – | – | – | 2170 nM | – | 39.1 nM | – | – | –
3 | O=C(Nc1cccc(C(F)(F)F)c1)Nc1cc(S(=O)(=O)NC2CC2)ccc1-c1ccsc1 [AGI-6780] | – | – | – | – | – | – | 1390 nM | – | –
4 | COc1cc(N2CCC(N3CCN(C)CC3)CC2)ccc1Nc1ncnc(Nc2ccccc2S(=O)(=O)C(C)C)n1 [ASP3026] | 3350 nM | – | 3110 nM | – | 1900 nM | – | – | 1830 nM | –
5 | Nc1ncn([C@@H]2O[C@H](CO)[C@@H](O)[C@H]2O)c(=O)n1 [Azacitidine] | 3620 nM | 1600 nM | 1440 nM | 384 nM | 1520 nM | 1150 nM | 1470 nM | – | 3860 nM
6 | Cn1cnc2c(F)c(Nc3ccc(Br)cc3F)c(C(=O)NOCCO)cc21 [Binimetinib] | – | – | – | > 1000 nM | – | – | – | – | 19.6 nM
7 | Nc1ncn([C@H]2C[C@H](O)[C@@H](CO)O2)c(=O)n1 [Decitabine] | – | 474 nM | 436 nM | 31.8 nM | 678 nM | 26.9 nM | 392 nM | – | –
8 | O=c1[nH]cc(F)c(=O)[nH]1 [Fluorouracil] | – | 1040 nM | 2490 nM | 1190 nM | 2010 nM | – | 526 nM | 820 nM | 1230 nM
9 | CN(C)C1CCN(C(=O)c2ccc(NC(=O)Nc3ccc(-c4nc(N5CCOCC5)nc(N5CCOCC5)n4)cc3)cc2)CC1 [Gedatolisib] | – | 32.5 nM | 27.4 nM | 75.6 nM | – | 85.9 nM | – | 147 nM | 14.7 nM
10 | C=CC(=O)N1CCC[C@@H](n2nc(-c3ccc(Oc4ccccc4)cc3)c3c(N)ncnc32)C1 [Ibrutinib] | > 1000 nM | – | – | – | – | – | – | – | –
11 | CC[C@H](Nc1ncnc2[nH]cnc12)c1nc2cccc(F)c2c(=O)n1-c1ccccc1 [Idelalisib] | – | – | 675 nM | 891 nM | – | – | 31.7 nM | – | –
12 | CCC(C)n1ncn(-c2ccc(N3CCN(c4ccc(OCC5COC(Cn6cncn6)(c6ccc(Cl)cc6Cl)O5)cc4)CC3)cc2)c1=O (stereo not drawn) [Itraconazole] | – | 1080 nM | 1160 nM | 503 nM | 1300 nM | 1030 nM | 572 nM | – | 1770 nM
13 | C[C@]1(O)C[C@@H](c2nc(-c3ccc4ccc(-c5ccccc5)nc4c3)c3c(N)nccn32)C1 [Linsitinib] | > 10000 nM | – | – | – | – | – | – | – | –
14 | Cn1cc(-c2cnn3c(N)c(Br)c([C@@H]4CCCNC4)nc23)cn1 [MK-8776] | – | 668 nM | 539 nM | – | 311 nM | 337 nM | 750 nM | – | 372 nM
15 | CC1(C)CNc2cc(NC(=O)c3cccnc3NCc3ccncc3)ccc21 [Motesanib] | – | – | – | > 10000 nM | – | – | – | – | –
16 | CC(C)(C)c1cc(NC(=O)Nc2ccc(-c3cn4c(n3)sc3cc(OCCN5CCOCC5)ccc34)cc2)no1 [Quizartinib] | > 1000 nM | – | – | – | 233 nM | 165 nM | – | – | –
17 | O=C(c1ccc(OCCN2CCCCC2)cc1)c1c(-c2ccc(O)cc2)sc2cc(O)ccc12 [Raloxifene] | – | – | 1740 nM | 4500 nM | 1740 nM | 2770 nM | 3290 nM | 3070 nM | 1680 nM
18 | CO[C@H]1C[C@@H]2CC[C@@H](C)[C@@](O)(O2)C(=O)C(=O)N2CCCC[C@H]2C(=O)O[C@H]([C@H](C)C[C@@H]2CC[C@@H](OP(C)(C)=O)[C@H](OC)C2)CC(=O)[C@H](C)/C=C(\C)[C@@H](O)[C@@H](OC)C(=O)[C@H](C)C[C@H](C)/C=C/C=C/C=C/1C [Ridaforolimus] | > 100 nM | 0.4 nM | 1.04 nM | 0.53 nM | 9.75 nM | – | – | – | 0.18 nM
19 | Nc1nc(N)c2nc(-c3cccc(O)c3)c(-c3cccc(O)c3)nc2n1 [TG100-115] | – | – | – | 132 nM | – | – | – | – | –
20 | CS(=O)(=O)c1ccc(-c2cnc(N)c(C(=O)Nc3ccccc3)n2)cc1 [VE-821] | 2660 nM | – | 1540 nM | 795 nM | 1550 nM | 332 nM | – | – | –
21 | CS(=O)(=O)c1ccc(C(=O)Nc2ccc(Cl)c(-c3ccccn3)c2)c(Cl)c1 [Vismodegib] | – | – | – | – | – | – | 1400 nM | – | –

Source: the supplement of paper PMC5908809
